In patent US12552834B2, “Selective MENA binding peptides” (MASSACHUSETTS INSTITUTE OF TECHNOLOGY, priority 2021, dated 2026):
“Also recorded” adds a separate entry of the source. Where no end group is shown, it is not given here. disordered linker = not defined here

Tests used:
ENAH EVH1 domain [1] = target: T1, ENAH EVH1 domain (Homo sapiens, UniProt Q8N8S7); experiment: Biolayer interferometry (BLI), SUMO-peptide fusions binding monomeric ENAH EVH1 domain WT
T1 construct: places a 6×-His and TEV cleavage tag N-terminal to the EVH1 domain; 6×-His + TEV cleavage site (N, cleaved yes); made in house; host or cells: E. coli Rosetta2(DE3)
Protocol: All BLI experiments were performed with 2 replicates on an Octet Red96 instrument (ForteBio). […] The loaded tips were immersed in a solution of ENAH EVH1 domain at a relevant dilution series in BLI buffer at an orbital shake speed of 1000 rpm and run until the binding signal plateaued. ENAH-bound tips were subsequently placed into BLI buffer only for dissociation and run until the binding signal plateaued. KD values were obtained through steady state analysis. […] The association phases were then fit to a one-phase binding model in Prism and the equilibrium steady-state binding signal values from that fit were plotted against ENAH concentration and fit to a single-site specific binding model in Prism to obtain dissociation constants. Errors reported are the standard deviation of two replicates.
Monomeric ENAH, EVL, or VASP EVH1 domains for use in BLI and ITC experiments, or ENAH EVH1-peptide fusions for crystallography was cloned into a pMCSG7 vector (gift from Frank Gertler, MIT), which places a 6×-His and TEV cleavage tag N-terminal to the EVH1 domain. These constructs were transformed into Rosetta2(DE3) cells and grown in 2×YT media supplemented with 100 μg/mL ampicillin. Cells were grown while shaking at 37° C. to an O.D. 600 of 0.5-0.7, and then cooled on ice for at least 20 minutes. They were then induced with 0.5 mM IPTG and grown while shaking at 18° C. overnight. Induced cultures were resuspended in 25 mL of wash buffer (20 mM Hepes pH 7.6, 500 mM NaCl, 20 mM imidazole) and frozen at −80° C. overnight. The next day, cultures were sonicated, spun down, and applied to Ni-NTA acid agarose resin equilibrated with wash buffer, and washed as described above. Samples were eluted in 10 mL elution buffer (20 mM Hepes pH 7.6, 500 mM NaCl, […]). TEV protease was added to the elution at a ratio of 1 mg TEV:50 mg tagged protein along with 1 mM DTT. This mixture was dialyzed against TEV cleavage buffer (50 mM Hepes pH 8.0, 300 mM NaCl, 5 mM DTT, 1 mM EDTA) at 4° C. overnight and then applied over Ni-NTA acid agarose resin equilibrated with wash buffer. The column was washed with 2×8 mL of wash buffer, and the resulting flow-through and washes were pooled, concentrated, and applied to an S75 26/60 column equilibrated in gel filtration buffer (20 mM Hepes pH 7.6, 150 mM NaCl, 1 mM DTT, 1% glycerol). Purity was verified by SDS-PAGE and combined fractions were concentrated and flash frozen at −80° C.
Rosetta2(DE3) cells (Novagen) were transformed with pDW363 vector encoding 6×-His-SUMO-peptide fusions and grown in 20 mL of LB+100 μg/mL Ampicillin+0.050 mM D-(+)-Biotin dissolved in DMSO for in vivo biotinylation. Cells were grown to an OD of 0.5-0.7 with 1 mM IPTG and induced for 4-6 hours at 37° C. Pellets were spun down and frozen and −80° C. for at least 2 hours. These pellets were then thawed and resuspended in B-PER reagent (ThermoFisher) at 4 mL/gram of pellet with 0.2 mM PMSF. This suspension was shaken at 25° C. for 10-15 minutes, and then spun down at 15,000 g for 10 minutes. The supernatant was applied to 250 μL of Ni-NTA acid agarose resin equilibrated in 20 mM Tris pH 8.0, 500 mM NaCl, 20 mM Imidazole (Buffer A), and then washed 3 times with 1 mL of this buffer. Peptides were eluted in 1.8 mL of 20 mM Tris pH 8.0, 500 mM NaCl, 300 mM imidazole to use in BLI assays.

ENAH EVH1 domain [2] = target: T1, ENAH EVH1 domain; experiment: Isothermal titration calorimetry (ITC), SUMO-peptide titrated into ENAH EVH1 domain; format: binding; settings: 25° C.
Protocol: ITC experiments were performed with two replicates using a VP-ITC microcalorimeter (MicroCal LLC). To prepare samples for ITC, 2.5 mL of 100 μM ENAH EVH1 domain and 1 mL of 800 μM-1.2 mM of SUMO-peptide fusions were dialyzed against 2 μL of ITC Buffer (20 mM Hepes pH 7.6, 150 mM NaCl, 1 mM TCEP) at 4° C. overnight. The concentrations of proteins were remeasured after dialysis on the day of experiment. SUMO-peptide was titrated into ENAH EVH1 domain at 25° C. Data analysis and curve fitting were performed with the Origin 7.0 software (OriginLab). Errors reported as the standard deviation of two replicates.
SUMO-peptide fusions were cloned into a pDW363 vector that appends a BAP and 6×-His tag to the N-terminus of the protein and transformed into Rosetta2(DE3) cells. For ITC experiments, these cells were expressed in TB supplemented with 100 μg/mL ampicillin, grown to an O.D. 600 of 0.5-0.7, and induced with 1 mM IPTG. Induced cultures were purified as described above for the pMCGS7 constructs, with the exception of the TEV cleavage step. Instead, after elution with elution buffer, the sample was directly applied to the S75 26/60 column equilibrated in gel filtration buffer. Fractions were pooled, concentrated, and flash frozen at −80° C.

[3] = test system: MV^D7shEVL cells expressing GFP-ENAH, GFP-EVL or GFP-VASP; experiment: Live-cell imaging of PCARE constructs co-expressed with GFP-tagged Ena/VASP paralogs; format: cell-based, mice
From the text: MV^D7 are embryonic fibroblasts derived from Enah^−/− Vasp^−/− mice, with low Evl expression (Auerbach 2003, Damiano-Guercio 2020). As Ena/VASP family members are known to heterotetramerize (Riquelme 2015), we used an shRNA against Evl to provide a clean background (average knockdown of MV^D7shEVL versus MV^D7 42.8+/−1.8% by qPCR, 3 biological replicates).
Together, these findings indicate that PCARE interacts specifically with ENAH and is capable of recruiting ENAH away from its normal functional sites. […]
Cells were imaged on a Ti-E inverted microscope (Nikon), with a 100× Apo TIRF 1.49 NA objective (Nikon) and an ORCA-Flash 4.0 V2 CMOS camera (Hamamatsu). For focal adhesion assessment, cells were imaged with total internal reflection fluorescence (TIRF) microscopy. To increase the depth of imaging for examination of mitochondrial localization, standard widefield fluorescence microscopy was used. Focal adhesion quantification was performed as previously described (Puleo 2019). […] Focal adhesion area was quantified by measuring the paxillin area of each cell within the whole cell area, or by examining individual focal adhesions. […]

T1 sequence (Q8N8S7 with tags, fused parts or gaps): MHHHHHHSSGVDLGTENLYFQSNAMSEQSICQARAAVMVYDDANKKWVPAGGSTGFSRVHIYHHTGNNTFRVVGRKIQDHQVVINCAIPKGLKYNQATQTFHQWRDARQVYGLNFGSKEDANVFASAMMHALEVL

Row | Compound | ITC binding model (ENAH EVH1 domain [2]) | ITC thermodynamic driving force of binding (ENAH EVH1 domain [2]) | binding to monomeric ENAH EVH1 domain by BLI, in words (ENAH EVH1 domain [1]) | other results
1 | CC[C@H](C)[C@H](NC(=O)[C@H](CO)NC(=O)[C@@H]1CCCN1C(=O)[C@H](CC(C)C)NC(=O)[C@H](C)NC(=O)[C@H](CO)NC(=O)[C@H](CO)NC(=O)[C@H](CC(=O)O)NC(=O)[C@H](CC(=O)O)NC(=O)[C@H](CC(C)C)NC(=O)[C@@H]1CCCN1C(=O)[C@@H]1CCCN1C(=O)[C@@H]1CCCN1C(=O)[C@@H]1CCCN1C(=O)[C@@H]1CCCN1C(=O)[C@@H]1CCCN1C(=O)[C@H](CC(C)C)NC(=O)[C@H](Cc1ccccc1)NC(=O)[C@H](CC(=O)O)NC(=O)CNC(=O)[C@H](CCC(=O)O)NC(=O)CNC(=O)CNC(=O)[C@@H]1CCCN1C(=O)[C@H](CCC(N)=O)NC(=O)[C@@H](N)CCCCN)C(=O)N[C@@H](CO)C(=O)NCC(=O)N[C@@H](CC(N)=O)C(=O)N[C@@H](Cc1ccccc1)C(=O)N1CCC[C@H]1C(=O)N1CCC[C@H]1C(=O)N1CCC[C@H]1C(=O)N1CCC[C@H]1C(=O)N1CCC[C@H]1C(=O)N[C@@H](CC(C)C)C(=O)O [LPP] | fit well to a 1:1 binding model | enthalpically driven | – | reduction in affinity (ENAH EVH1 domain [1]; sequence between the two motifs replaced with a Gly-Ser linker): ~4 fold
2 | ADRSPFLPPPPPVTDCSQGSPLPHSPVFPPPPPEAL-OH [NHSL1] | fit well to a 1:1 binding model | enthalpically driven | – | –
3 | GSTQDVQSSPHNQFTFRPLPPPPPPPHACTCARKPP [TENM1] | – | – | – | Kd (ENAH EVH1 domain [1]; BLI, ENAH EVH1 domain): > 60 µM
4 | ILSGLPAPDFIDYPERQECNCRPQESPYVSGMKTCH [TRIM1, CXC-motif peptide from E3 ubiquitin ligase TRIM1] | – | – | did not saturate; also recorded: bound weakly and reversibly | –
5 | PPAPEEQDLSMADFPPPEEAFFSVASPEPAGPSGSP [KIAAA1522] | – | – | mid-micromolar affinity | –
6 | mRuby2-PCARE: PCARE^822-848 tagged at the N-terminus with mRuby2 and a disordered linker, lentiviral expression ({mRuby2-disordered linker}-EMEGNLEHLPPPPMEVLMDKSFASLES; reading uncertain; UniProt A6NGG8 822-848, looked up, fragment) | – | – | – | localization of the PCARE construct ([3]; all conditions except co-expression with ENAH (GFP, ΔEVH1-ENAH, EVL, VASP)): diffuse cytoplasmic localization; localization of the PCARE construct ([3]; co-expressed with GFP-ENAH): moderately recruited to focal adhesions
